Data: patent publication US4551532A, “Ethylene glycol derivatives having anti-protozoan, anti-fungal and anti-tumor activity” (priority 1980, dated 1985)
Converted amounts (≈) assume the structure as drawn. Read-outs that look alike come from different tables or passages of the source.

Assays:
[1] = tested on: Sclerotinia sclerotiorum; experiment: antifungal activity, serial dilution method; format: cell-based; conditions: Sclerotinia sclerotiorum (kidney bean stem rot); 1% glucose-bouillon agar
[2] = tested on: Botrytis cinerea; experiment: antifungal activity, serial dilution method; format: cell-based; conditions: Botrytis cinerea (gray mold); 1% glucose-bouillon agar
[3] = tested on: Pyricularia oryzae; experiment: microbe, parasite or virus in culture; format: cell-based
[4] = tested on: Saccharomyces cerevisiae; experiment: antifungal activity, serial dilution method; format: cell-based
[5] = tested on: Penicillium; experiment: antifungal activity, serial dilution method; format: cell-based, Penicillium niger
[6] = tested on: Aspergillus niger; experiment: antifungal activity, serial dilution method; format: cell-based
[7] = tested on: Cochliobolus miyabeanus; experiment: antifungal activity, serial dilution method; format: cell-based; conditions: Bipolaris oryzae
[8] = tested on: Leptosphaeria salvinii; experiment: antifungal activity, serial dilution method; format: cell-based; conditions: Nakataea oryzae
[9] = tested on: Colletotrichum lagenarium; experiment: antifungal activity, serial dilution method; format: cell-based; conditions: Colletotrichum orbiculare
[10] = tested on: Cryptococcus neoformans; experiment: antimycotic activity, paper disk inhibition circle; format: cell-based; conditions: 48 h, 8 mm paper disk, 3 mg/ml, 37° C., 2 days, read-out: Growth inhibition Cryptococcus
Procedure: (§1) Referring to the antimycotic activity presented in Table 2, Cryptoccoccus neoformans and others were used as the test microbes, a paper disk (8 mm in diameter) was immersed in an aqueous solution of each test compound having a concentration of 3 mg/ml, air dried and placed on an agar medium, then incubation was conducted at 37° C. for 2 days, and the inhibition circle was measured. When the diameter of the inhibition circle was not larger than 8 mm, 8-10 mm, 10-20 mm, or larger than 20 mm, the activity was judged as -, ±, + or ++, respectively.

[11] = tested on: Rhodotorula; experiment: antimycotic activity, paper disk inhibition circle; format: cell-based; conditions: 48 h, 8 mm paper disk, 3 mg/ml, 37° C., 2 days, read-out: Growth inhibition Rhodotorula
Procedure: as §1

[12] = tested on: Hamigera; experiment: antimycotic activity, paper disk inhibition circle; format: cell-based; conditions: 48 h; 8 mm paper disk, 3 mg/ml, 37° C., 2 days; read-out: Growth inhibition Hamigera
Procedure: as §1

[13] = tested on: Tetrahymena pyriformis W strain; experiment: antiprotozoal activity, broth dilution method; format: cell-based; conditions: 28° C., 44-48 hours, pH 7.0, read-out: Growth inhibition MIC Tetrahymena
[14] = tested on: human myelocytic leukemia cells HL-60; experiment: growth inhibiting effect (IG effect) on HL-60; format: cell-based; conditions: HL-60, 120 h, 5 day culture, read-out: IG effect on HL-60 GD50
[15] = Saccharomyces cerevisiae (brewer's yeast), 1% glucose-bouillon agar, read-out: MIC
[16] = Penicillium niger (blue mold), 1% glucose-bouillon agar, read-out: MIC
[17] = Aspergillus niger (black mold), 1% glucose-bouillon agar, read-out: MIC
[18] = Leptosphaeria salvinii (rice stem rot), 1% glucose-bouillon agar, read-out: MIC
[19] = Colletotrichum lagenarium (cucumber anthracnose), 1% glucose-bouillon agar, read-out: MIC

Row | SMILES | MIC [1] [µg/mL] | MIC [2] [µg/mL] | MIC [3] [µg/mL] | MIC [5, 16] [µg/mL] | MIC [6, 17] [µg/mL] | MIC [7] [µg/mL] | MIC [8, 18] [µg/mL] | MIC [9, 19] [µg/mL] | zone of inhibition at 3000 µg/mL [10] [mm] | MIC [13] [µg/mL] | also measured
1 | CCCCCCCCCCCCCOCCOCCOP(=O)([O-])OCC[N+](C)(C)C [Ex.] | 100 (≈ 220 µM) | 25 (≈ 55.1 µM) | 6.25 (≈ 13.8 µM) | 12.5 (≈ 27.6 µM) | 25 (≈ 55.1 µM) | 25 (≈ 55.1 µM) | 12.5 (≈ 27.6 µM) | 3.12 (≈ 6.88 µM) | – | – | MIC [4, 15]: 12.5 µg/mL (≈ 27.6 µM)
2 | CCCCCCCCCCCCOCCOCCOCCOCCOCCOP(=O)([O-])OCC[n+]1ccccc1 [Example 2, 3,6,9,12,15-Pentaoxaheptacosyl 2-pyridinioethyl phosphate] | – | – | – | – | – | – | – | – | 8 to 10 | > 4 | zone of inhibition at 3000 µg/mL [11]: 10 to 20 mm; zone of inhibition at 3000 µg/mL [12]: < 8 mm
3 | CCCCCCCCCCCCOCCOCCOCCOCCOCCOP(=O)([O-])OCC[N+](C)(C)C [Example 3, 3,6,9,12,15-Pentaoxaheptacosyl 2-trimethylammonioethyl phosphate] | – | – | – | – | – | – | – | – | < 8 | > 4 | –
4 | CCCCCCCC/C=C\CCCCCCCCOCCOCCOP(=O)(O)OCCN [Example 5, 3,6-Dioxatetracos-15(Z)-enyl 2-aminoethyl phosphate] | – | – | – | – | – | – | – | – | 8 to 10 | 4 | –
5 | CCCCCCCC/C=C\CCCCCCCCOCCOCCOP(=O)(O)OCCNC(C)(C)C [Example 8, 3,6-Dioxatetracos-15(Z)-enyl 2-tert-butylaminoethyl phosphate] | – | – | – | – | – | – | – | – | – | > 4 | –
6 | CCCCCCCC/C=C\CCCCCCCCOCCOCCOCCOCCOP(=O)(O)OCCN [Example 10, 3,6,9,12-Tetraoxatriacont-21(Z)-enyl 2-aminoethyl phosphate] | – | – | – | – | – | – | – | – | 10 to 20 | > 4 | IC50 [14]: 1 to 2 µg/mL
7 | CCCCCCCCCCCCOCCOCCOP(=O)(O)OCCN [Example 12, 2-[2-(Dodecyloxy)ethoxy]ethyl 2-aminoethyl phosphate] | 25 | 50 | 100 | – | 25 | 50 | – | 25 | > 20 | 2 to 4 | zone of inhibition at 3000 µg/mL [11]: 10 to 20 mm; zone of inhibition at 3000 µg/mL [12]: 10 to 20 mm; MIC [4, 15]: 100 µg/mL; IC50 [14]: 5 µg/mL
8 | CCCCCCCCCCCCOCCOCCOCCOP(=O)(O)OCCN [Example 13, 3,6,9-Trioxaheneicosanyl 2-aminoethyl phosphate] | 25 | 50 | 100 | – | 25 | 50 | – | 25 | 10 to 20 | 4 | zone of inhibition at 3000 µg/mL [11]: 10 to 20 mm; zone of inhibition at 3000 µg/mL [12]: 10 to 20 mm; MIC [4, 15]: 100 µg/mL
9 | CCCCCCCCCCCCOCCOCCOCCOCCOP(=O)(O)OCCN [Example 14, 3,6,9,12-Tetraoxatetracosyanyl 2-aminoethyl phosphate] | – | – | – | – | – | – | – | – | 10 to 20 | 4 | zone of inhibition at 3000 µg/mL [11]: 10 to 20 mm; zone of inhibition at 3000 µg/mL [12]: 10 to 20 mm
10 | CCCCCCCCCCCCOCCOCCOCCOP(=O)([O-])OCC[n+]1ccccc1 [Example 16, 3,6,9-Trioxaheneicosanyl 2-pyridinioethyl phosphate] | 50 | 12.5 | 25 | 12.5 | 25 | 25 | 25 | 12.5 | > 20 | > 4 | zone of inhibition at 3000 µg/mL [11]: 10 to 20 mm; zone of inhibition at 3000 µg/mL [12]: 10 to 20 mm; MIC [4, 15]: 50 µg/mL
11 | CCCCCCCCCCCCCCCCCCOCCOCCOP(=O)([O-])OCC[N+](C)(C)C [Example 18, 3,6-Dioxatetracoxyl 2-trimethylammonioethyl phosphate] | > 100 | 25 | 12.5 | > 100 | > 100 | > 100 | – | > 100 | 10 to 20 | ≥ 4 | MIC [8]: 12.5 µg/mL
12 | CCCCCCCCCCOCCOCCOP(=O)([O-])OCC[N+](C)(C)C [Example 21, 3,6-Dioxahexadecyl 2-trimethylammonioethyl phosphate] | – | – | – | – | – | – | – | – | 10 to 20 | 2 | –
13 | CCCCCCCCCCOCCOCCOP(=O)(O)OCCN [Example 22, 3,6-Dioxahexadecyl 2-aminoethyl phosphate] | – | – | – | – | – | – | – | – | < 8 | 4 | –
14 | CCCCCCCCCCCCCCOCCOCCOP(=O)(O)OCCN [Example 24, 3,6-Dioxaeicosyl 2-aminoethyl phosphate] | 50 | 25 | 25 | 6.25 | 12.5 | 100 | > 100 | 25 | 10 to 20 | 1 to 2 | –
15 | CCCCCCCCCCCCOCCOCCOP(=O)([O-])OCC[N+](C)(C)C [Example 25, 3,6-Dioxaoctadecyl 2-trimethylammonioethyl phosphate] | 25 | 6.25 | 12.5 | – | 25 | 25 | 6.25 | 1.56 | > 20 | 0.4 | MIC ([4]; Saccharomyces cerevisiae): 12.5 µg/mL; MIC ([5]; Penicillium): 12.5 µg/mL
16 | CCCCCCCCCCCCCCOCCOCCOP(=O)([O-])OCC[N+](C)(C)C [Example 26, 3,6-Dioxaeicosyl 2-trimethylammonioethyl phosphate] | 50 | 6.25 | 3.12 | 6.25 | – | 12.5 | 6.25 | 1.56 | 10 to 20 | 0.2 | MIC [4, 15]: 6.25 µg/mL; MIC ([6]; Aspergillus niger): 12.5 µg/mL
17 | CCCCCCCCCCCCCOCCOCCOP(=O)([O-])OCC[n+]1ccccc1 [Example 28, 3,6-Dioxanonadecyl 2-pyridinioethyl phosphate] | 25 | 12.5 | 6.25 | 12.5 | 25 | 25 | 12.5 | – | > 20 | 4 | MIC [9]: 6.25 µg/mL
18 | CCCCCCCCCCCCCOCCOCCOP(=O)([O-])OCC[N+](C)(C)C [Example 29, 3,6-Dioxanonadecyl 2-trimethylammonioethyl phosphate] | – | – | – | – | – | – | – | – | > 20 | ≤ 1 | –
19 | CCCCCCCCCCCCOCCOCCOP(=O)([O-])OCC[n+]1ccc2ccccc2c1 [Example 32, 3,6-Dioxaoctadecyl 2-isoquinolinioethyl phosphate] | – | – | – | – | – | – | – | – | > 20 | 4 | –
20 | CCCCCCCCCCCCCCOCCOCCOP(=O)([O-])OCC[n+]1ccccc1 [Example 34, 3,6-Dioxaeicosyl 2-pyridinioethyl phosphate] | – | – | – | – | – | – | – | – | 10 to 20 | 4 | –
